From ChEMBL document CHEMBL3588800, “Novel Bioactive Hybrid Compound Dual Targeting Estrogen Receptor and Histone Deacetylase for the Treatment of Breast Cancer” (J Med Chem, 2015) come the findings set out here.

The target of one assay is Histone deacetylase 1 (Homo sapiens, UniProt Q13547). As to the kind of experiment: Inhibition of human recombinant HDAC1 after 15 mins by fluorogenic assay.
Assay [1] addresses T1, Estrogen receptor (Homo sapiens) (UniProt P03372).
T1 sequence (whole entry): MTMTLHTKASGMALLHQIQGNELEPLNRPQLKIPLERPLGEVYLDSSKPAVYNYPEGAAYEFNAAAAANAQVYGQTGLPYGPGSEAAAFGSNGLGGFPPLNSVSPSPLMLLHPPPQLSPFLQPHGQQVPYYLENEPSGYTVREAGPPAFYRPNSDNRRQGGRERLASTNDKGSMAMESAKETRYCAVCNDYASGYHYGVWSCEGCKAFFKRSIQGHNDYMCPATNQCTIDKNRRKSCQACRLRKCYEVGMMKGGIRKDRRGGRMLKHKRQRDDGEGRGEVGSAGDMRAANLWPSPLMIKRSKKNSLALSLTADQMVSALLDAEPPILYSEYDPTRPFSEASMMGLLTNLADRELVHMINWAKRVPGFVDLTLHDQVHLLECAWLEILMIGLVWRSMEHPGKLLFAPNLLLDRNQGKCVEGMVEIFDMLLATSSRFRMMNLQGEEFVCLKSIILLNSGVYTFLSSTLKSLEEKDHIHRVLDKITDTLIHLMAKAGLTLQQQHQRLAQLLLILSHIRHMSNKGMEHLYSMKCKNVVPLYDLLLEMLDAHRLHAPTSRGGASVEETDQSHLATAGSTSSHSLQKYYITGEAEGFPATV
As to the kind of experiment: Agonist activity at ER-alpha (unknown origin) transfected in HEK293T cells assessed as stimulation of transcriptional activity after 24 hrs by luciferase reporter gene assay relative to 17-beta estradiol. Conditions: HEK-293T; call rule not given here. The class given is cell-based. In general terms: A reporter such as luciferase makes a cellular process visible.

For assay [2], the target named is T2, Estrogen receptor beta (Homo sapiens, UniProt Q92731). As to the kind of experiment: Agonist activity at ER-beta (unknown origin) transfected in HEK293T cells assessed as stimulation of transcriptional activity after 24 hrs by luciferase reporter gene assay relative to 17-beta estradiol. The class given is cell-based. Conditions: HEK-293T.
T2 sequence (Q92731 whole entry): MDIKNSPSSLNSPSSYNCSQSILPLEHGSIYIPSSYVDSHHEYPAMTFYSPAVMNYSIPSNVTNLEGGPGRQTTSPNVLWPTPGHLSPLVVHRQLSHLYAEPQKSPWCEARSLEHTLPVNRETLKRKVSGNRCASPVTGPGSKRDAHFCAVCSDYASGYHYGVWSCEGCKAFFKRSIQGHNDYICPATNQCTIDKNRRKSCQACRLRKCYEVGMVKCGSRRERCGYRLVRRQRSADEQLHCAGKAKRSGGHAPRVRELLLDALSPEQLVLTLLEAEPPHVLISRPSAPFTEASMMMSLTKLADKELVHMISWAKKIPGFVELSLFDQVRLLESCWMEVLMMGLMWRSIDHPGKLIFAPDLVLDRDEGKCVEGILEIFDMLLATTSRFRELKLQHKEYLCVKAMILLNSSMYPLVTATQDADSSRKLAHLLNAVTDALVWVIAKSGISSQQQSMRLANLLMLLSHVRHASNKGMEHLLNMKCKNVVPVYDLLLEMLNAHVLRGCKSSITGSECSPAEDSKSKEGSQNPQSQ
Assay [3] has as its target T3, Estrogen receptor (Homo sapiens, UniProt P03372).
T3 sequence (P03372 whole entry): T1 sequence (whole entry)
As to the kind of experiment: Antagonist activity at ER-alpha (unknown origin) transfected in HEK293T cells assessed as inhibition of transcriptional activity after 24 hrs by luciferase reporter gene assay. Format: cell-based, HEK-293T.

Assay [4] has as its target T1, Estrogen receptor (Homo sapiens). As to the kind of experiment: Antagonist activity at ER-alpha (unknown origin) transfected in HEK293T cells assessed as inhibition of transcriptional activity after 24 hrs by luciferase reporter gene assay relative to 17-beta estradiol. Format: cell-based. The conditions noted are these: HEK-293T.
Assay [5] deals with T2, Estrogen receptor beta. Kind of assay: Antagonist activity at ER-beta (unknown origin) transfected in HEK293T cells assessed as inhibition of transcriptional activity after 24 hrs by luciferase reporter gene assay. The class given is cell-based, HEK-293T.
The target in assay [6] is T2, Estrogen receptor beta. As to the kind of experiment: Antagonist activity at ER-beta (unknown origin) transfected in HEK293T cells assessed as inhibition of transcriptional activity after 24 hrs by luciferase reporter gene assay relative to 17-beta estradiol. The class given is cell-based. The conditions noted are these: HEK-293T.
For the next assay, the system named is MCF7. Kind of assay: cells. Format: functional, cell-based. Conditions: Homo sapiens, MCF7, 72 h.
A further assay concerns DU-145. Kind of assay: cells. The class given is functional, cell-based. The conditions noted are these: Homo sapiens, DU-145, 72 h.
For another assay, the system named is Vero. As to the kind of experiment: cells. The class given is ADME, cell-based. The conditions noted are these: Chlorocebus sabaeus, 72 h.
Assay [7] deals with T4, Protein deacetylase HDAC6 (Homo sapiens, UniProt Q9UBN7).
T4 sequence (Q9UBN7 whole entry): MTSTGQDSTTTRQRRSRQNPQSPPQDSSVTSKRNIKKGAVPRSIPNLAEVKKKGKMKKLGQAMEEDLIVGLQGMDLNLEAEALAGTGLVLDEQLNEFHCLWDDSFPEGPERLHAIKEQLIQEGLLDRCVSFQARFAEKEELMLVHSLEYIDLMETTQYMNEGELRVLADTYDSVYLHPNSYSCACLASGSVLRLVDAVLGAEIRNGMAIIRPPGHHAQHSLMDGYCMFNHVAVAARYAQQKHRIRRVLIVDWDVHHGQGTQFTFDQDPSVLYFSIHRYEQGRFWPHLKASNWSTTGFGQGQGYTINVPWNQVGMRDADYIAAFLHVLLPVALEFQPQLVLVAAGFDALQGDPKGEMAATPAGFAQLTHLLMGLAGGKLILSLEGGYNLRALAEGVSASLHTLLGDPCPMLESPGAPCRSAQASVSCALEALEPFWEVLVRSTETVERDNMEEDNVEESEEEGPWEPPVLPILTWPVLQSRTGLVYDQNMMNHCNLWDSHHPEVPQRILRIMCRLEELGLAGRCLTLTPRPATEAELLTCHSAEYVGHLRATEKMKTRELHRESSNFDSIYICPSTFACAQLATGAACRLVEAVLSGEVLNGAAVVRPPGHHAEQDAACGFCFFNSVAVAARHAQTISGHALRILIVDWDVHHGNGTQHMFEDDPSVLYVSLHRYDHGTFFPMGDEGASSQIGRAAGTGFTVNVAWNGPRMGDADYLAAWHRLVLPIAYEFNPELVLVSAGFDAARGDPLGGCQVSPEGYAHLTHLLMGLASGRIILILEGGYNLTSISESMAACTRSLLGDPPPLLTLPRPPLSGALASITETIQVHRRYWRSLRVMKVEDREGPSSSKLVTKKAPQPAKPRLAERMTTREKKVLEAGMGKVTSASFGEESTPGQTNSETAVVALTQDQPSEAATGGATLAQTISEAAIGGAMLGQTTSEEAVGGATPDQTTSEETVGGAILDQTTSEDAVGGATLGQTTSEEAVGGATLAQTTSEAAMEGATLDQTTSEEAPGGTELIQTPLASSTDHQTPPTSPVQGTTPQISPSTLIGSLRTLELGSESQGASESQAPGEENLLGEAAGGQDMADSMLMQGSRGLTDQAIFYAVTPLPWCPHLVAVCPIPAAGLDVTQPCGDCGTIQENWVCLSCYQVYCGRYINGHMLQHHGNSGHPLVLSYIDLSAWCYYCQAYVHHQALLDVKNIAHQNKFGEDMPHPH
Kind of assay: Inhibition of human recombinant HDAC6 after 15 mins by fluorogenic assay. The conditions noted are these: read-out: IC50.

Assay [8] has as its target T3, Estrogen receptor. Kind of assay: Binding affinity to human ER-alpha ligand binding domain after 2 hrs by competitive fluorometric binding assay.
For assay [9], the target named is T2, Estrogen receptor beta. As to the kind of experiment: Binding affinity to human ER-beta ligand binding domain after 2 hrs by competitive fluorometric binding assay.
Assay [10] has as its target T3, Estrogen receptor. As to the kind of experiment: Agonist activity at ER-alpha (unknown origin) transfected in HEK293T cells assessed as stimulation of transcriptional activity after 24 hrs by luciferase reporter gene assay. Format: cell-based, HEK-293T.
The target in assay [11] is T2, Estrogen receptor beta. As to the kind of experiment: Agonist activity at ER-beta (unknown origin) transfected in HEK293T cells assessed as stimulation of transcriptional activity after 24 hrs by luciferase reporter gene assay. The class given is cell-based, HEK-293T.

Chain of Histone deacetylase 1 (Q13547 whole entry): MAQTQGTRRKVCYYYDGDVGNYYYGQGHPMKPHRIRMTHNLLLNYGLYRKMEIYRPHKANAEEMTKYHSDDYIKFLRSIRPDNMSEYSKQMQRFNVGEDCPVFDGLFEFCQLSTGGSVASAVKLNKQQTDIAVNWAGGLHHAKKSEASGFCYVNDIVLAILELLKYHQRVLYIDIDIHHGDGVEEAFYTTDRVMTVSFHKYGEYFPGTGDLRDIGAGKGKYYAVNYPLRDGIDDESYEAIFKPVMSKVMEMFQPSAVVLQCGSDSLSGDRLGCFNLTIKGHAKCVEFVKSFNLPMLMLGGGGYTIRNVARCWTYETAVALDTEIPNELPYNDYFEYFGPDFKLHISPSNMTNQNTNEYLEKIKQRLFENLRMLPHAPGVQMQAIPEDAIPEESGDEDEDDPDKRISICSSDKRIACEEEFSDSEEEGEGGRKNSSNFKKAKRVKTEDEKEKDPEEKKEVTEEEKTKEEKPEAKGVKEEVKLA

Usually IC50 stands for the point on the concentration scale where inhibition reaches its midpoint. For `O=C(O)CCCCCCC(=O)Nc1ccc(OS(=O)(=O)C2CC3OC2C(c2ccc(O)cc2)=C3c2ccc(O)cc2)cc1` (stereo unspecified), the half-inhibitory concentration (IC50) at Histone deacetylase 1 (read-out: IC50) is 107 nM; at Estrogen receptor [3], 50 nM; at Estrogen receptor beta [5] it was 160 nM; in the assay on MCF7, 19100 nM; with DU-145, 34800 nM; in the assay on Vero, above 100000 nM. Further, the 50% inhibitory concentration (IC50) in assay [7] is 8340 nM. Besides, the Efficacy in assay [1] was -10%; on Estrogen receptor beta [2], -5%; in [4], 25%; on Estrogen receptor beta [6] it was 89%.
As usually defined, the Ki is the dissociation constant of the complex between target and ligand, obtained from inhibition or displacement. Higher therefore signals lower affinity. With `O=C(CCCCCCC(=O)Nc1ccc(OS(=O)(=O)C2CC3OC2C(c2ccc(O)cc2)=C3c2ccc(O)cc2)cc1)NO` (stereo unspecified), the half-maximal inhibitory concentration (IC50) on Histone deacetylase 1 (read-out: IC50) was 583 nM; at Estrogen receptor beta [5], 1140 nM; in the assay with MCF7 it was 55200 nM; with DU-145 it was 42300 nM; in the assay with Vero, above 100000 nM; in assay [7], 189 nM. The Ki came out at 148 nM on Estrogen receptor [8] and 127 nM on Estrogen receptor beta [9]. Further, the Efficacy in [1] is -15%; on Estrogen receptor beta [2], 3%; in [4] it was 104%; at Estrogen receptor beta [6], -27%.
`O=C(CCCCCCC(=O)Nc1ccc(C2=C(c3ccc(O)cc3)C3CC(S(=O)(=O)Oc4ccc5ccccc5c4)C2O3)cc1)NO` (stereo unspecified): the IC50 on Histone deacetylase 1 (read-out: IC50) was 349 nM; at Estrogen receptor [3], 160 nM; at Estrogen receptor beta [5], 7700 nM; in the assay with MCF7 it was 32200 nM; in the assay on DU-145, 12400 nM; with Vero, above 100000 nM. Moreover, the concentration for half-maximal inhibition (IC50) in [7] came to 322 nM. Besides, the inhibition constant Ki on Estrogen receptor [8] is 307 nM; on Estrogen receptor beta [9] it was 102 nM. The Efficacy is 13% in assay [1], -17% at Estrogen receptor beta [2], -26% in assay [4] and 19% at Estrogen receptor beta [6].
The term EC50 denotes the concentration that produces a half-maximal response. Regarding `O=C(O)CCCCCCC(=O)Nc1ccc(C2=C(c3ccc(O)cc3)C3CC(S(=O)(=O)Oc4cccc(O)c4)C2O3)cc1` (racemic), the IC50 result is “Not Active” at Histone deacetylase 1; 3600 nM in the assay with MCF7; 23800 nM in the assay with DU-145; above 100000 nM in the assay with Vero; 71 nM in assay [7]. The EC50 on Estrogen receptor [10] is 3690 nM; on Estrogen receptor beta [11], 8100 nM. Moreover, the Efficacy in assay [1] is 77%; at Estrogen receptor beta [2] it was 105%; in assay [4] it was 108%; on Estrogen receptor beta [6], 120%.
Consider `O=C(O)CCCCCCC(=O)Nc1ccc(C2=C(c3ccc(O)cc3)C3CC(S(=O)(=O)Oc4ccc(Br)cc4)C2O3)cc1` (racemic), for which the Ki came out at 126 nM on Estrogen receptor [8] and 60.5 nM at Estrogen receptor beta [9]. Moreover, the Efficacy in assay [1] is -36%; at Estrogen receptor beta [2], -3%; in [4], 75%; on Estrogen receptor beta [6] it was 77%. For the same molecule, the IC50 is 1700 nM on Estrogen receptor [3]; 250 nM at Estrogen receptor beta [5]; above 100000 nM in the assay with MCF7; above 100000 nM in the assay on DU-145; above 100000 nM in the assay on Vero.
In the case of `Cc1cccc(OS(=O)(=O)C2CC3OC2C(c2ccc(NC(=O)CCCCCCC(=O)NO)cc2)=C3c2ccc(O)cc2)c1` (racemic), the Ki at Estrogen receptor [8] was 4430 nM; on Estrogen receptor beta [9], above 5000 nM. In addition, the Efficacy in assay [1] is 38%; at Estrogen receptor beta [2], 29%; in assay [4] it was 115%; at Estrogen receptor beta [6], 48%. Further, the EC50 on Estrogen receptor beta [11] stood at 54 nM. For the same molecule, the IC50 was 613 nM on Estrogen receptor beta [5], 22900 nM with MCF7, 32200 nM in the assay with DU-145 and above 100000 nM with Vero.
As for `O=C(CCCCCCC(=O)Nc1ccc(C2=C(c3ccc(O)cc3)C3CC(S(=O)(=O)Oc4ccc(Br)cc4)C2O3)cc1)NO` (racemic), the IC50 result is “Not Active” at Histone deacetylase 1; 17100 nM in the assay with MCF7; 11300 nM in the assay with DU-145; above 100000 nM in the assay with Vero; 230 nM in assay [7]. On Estrogen receptor [8], this molecule showed a Ki above 5000 nM. The EC50 at Estrogen receptor [10] was found to be 1140 nM; at Estrogen receptor beta [11], 173 nM. For the same molecule, the Efficacy in assay [1] turned out to be 33%; on Estrogen receptor beta [2] it was 21%; in assay [4], 101%; on Estrogen receptor beta [6], 91%.
